Calls of active or inactive are those of the source.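 Rule for the calls: active = compounds displacing the labeled ligand from RAR alpha with half-maximal potency at 10 µM or stronger; inactive = the rest.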
Target: Retinoic acid receptor alpha (Homo sapiens) (UniProt P10276)
Assay: RARalpha binders by radioligand displacement, dose response, biochemical, [3H]9-cis-retinoic acid (AID 1159612)
Details: RARalpha radioligand binding, [3H]9-cis-RA displacement

Chain of Retinoic acid receptor alpha (Homo sapiens) (P10276 whole entry, looked up): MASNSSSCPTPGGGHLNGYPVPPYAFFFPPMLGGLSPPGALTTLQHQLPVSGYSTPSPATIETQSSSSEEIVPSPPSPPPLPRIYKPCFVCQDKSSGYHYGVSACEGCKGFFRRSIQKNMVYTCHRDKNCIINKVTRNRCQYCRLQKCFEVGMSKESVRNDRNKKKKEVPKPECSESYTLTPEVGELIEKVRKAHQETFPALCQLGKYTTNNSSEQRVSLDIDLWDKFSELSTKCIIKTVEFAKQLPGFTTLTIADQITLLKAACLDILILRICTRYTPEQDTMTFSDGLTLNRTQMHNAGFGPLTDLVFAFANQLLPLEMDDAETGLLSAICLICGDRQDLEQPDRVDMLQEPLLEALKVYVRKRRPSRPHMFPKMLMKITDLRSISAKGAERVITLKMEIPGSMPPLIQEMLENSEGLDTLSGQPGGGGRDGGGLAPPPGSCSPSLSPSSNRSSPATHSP

IC50: inactive
Structure (SMILES): CC1=C[C@H](O)CC(C)(C)[C@H]1/C=C/C(C)=C/C=C/C(C)=C/C=C/C=C(C)/C=C/C=C(C)/C=C/C1=C(C)C[C@@H](O)CC1(C)C

Source: PubChem BioAssay AID1159612
